Tests used:
[1] = degradation time in vivo of ω-oxidation blocked analogue
Description: ω-oxidation is believed to be the main pathway for degradation of the fatty acid entities as described with a block in the X position. Experiments were thus performed where R′ was changed to block ω-oxidation, by introducing a triple bond at the methyl end of the fatty acid analogue. […] This is important for the use of the fatty acid entities in pharmaceutical preparation, as it may potentiate the effects of the β-oxidizable fatty acid entities by further slowing down their breakdown.

[2] = tested on: mitochondrial β-oxidation in the liver; experiment: activity of mitochondrial β-oxidation in the liver of fatty acid analogues; assay type: biochemical
Description: Although all fatty acid anagoges with an odd positioning of the β-oxidation blocker X away from the carboxylic end block β-oxidation, the extent of their biological effect may be variable. This is due to the difference in biological degradation time of the various compounds. The inventors have done experiments to show the effect of moving X further from the carboxylic fatty acid end. In these experiments the activity (in nmol/min/mg/protein) of mitochondrial β-oxidation in the liver of fatty acid analogues was measured with sulphur in the 3, 5 and 7 positions relative to the carboxyl end. The activities were 0.81 for sulphur in the 3rd position, 0.61 for sulphur in the 5th position, 0.58 for sulphur in the 7th position, and 0.47 for palmitic acid, the non β-oxidation blocking control. […] However, as the decline is great for going from the 3rd to 5th position, but small going from the 5th to 7th position, it is reasonable to assume that this decline will continue to be less as one moves out the chain and thus that it will be very far out indeed before no effect (compared to the control) is seen at all.

SMILES | degradation time in vivo [1] | activity of mitochondrial β-oxidation in the liver [2] [nmol/min/mg/protein]
CC#CCCCCCCCCCCCSCC [3-thia-15-heptadecyn] | substantially increased degradation time in vivo | –
CCCCCCCCCCCCCCCC(=O)O [palmitic acid] | – | 0.47

— US7659242B2, “Composition comprising protein material and compounds comprising non-oxidizable fatty acid entities” (Thia Medica AS, priority 2004, dated 2010)
